Test results from patent publication US9636348B2, “6-substituted estradiol derivatives for use in remyelination of nerve axons” (Endece LLC, priority 2011, dated 2017).

What was measured:
[1] = system: oligodendrocyte precursor cells (OPCs); test: Oligodendrocyte differentiation assay (PLP-EGFP reporter); assay type: cell-based, mouse; settings: for Potency in OPC differentiation (in words): 4 days, FIGS. 1 and 3
Method: OPC cultures are prepared as described Pedraza, C. E. et al., Glia 56(12), 1339-52 (2008), incorporated herein by reference. Brains are removed from E14.5 C57Bl6/J (expressing PLP-EGFP) mice (Mallon, B. S. et al., J. Neurosci 22(3), 876-85 (2002)), cleaned and cortical hemispheres are isolated. Tissue is then triturated and seeded in T-25 cm^2 flasks at a density of 1 brain (2 cortical hemispheres) per flask. Neurospheres are passaged once after 3 days. Cells from passage 2 are used to prepare two 96-well plates for the primary screen. Following the initial 48 hour incubation in OPC media, the OPCs are treated with 10 μM of 17β-estradiol, compound 4 and compound 21, along with vehicle control DMSO and positive control compounds including […] ciliary neurotrophic factor (CNTF) and 1 μM extracellular-signal-regulated (ERK) kinase inhibitor (MEKi). Cells are treated for a total of 4 days and the media is replaced once at the 48 hour mark with fresh compounds. After the 4 day treatment the cells are fixed with 4% paraformaldehyde and stained with Hoechst 33342 to visualize nuclei. Cells are also stained with anti-GFAP (GFAP=glial fibrillary acidic protein) antibodies to identify astrocytes. Cells are blocked with 3% normal goat serum followed by an overnight incubation of anti-rabbit GFAP antibody (1:500). Cells are labeled with a 1:1000 concentration of secondary goat anti-rabbit Alexa 647 fluorochrome antibody. Images are acquired using the Cellomics Arrayscan VTI. Twenty fields at 10× magnification are acquired per well and the cells expressing EGFP (enhanced green gluorescent protein; mature oligodendrocytes) and GFAP (astrocytes) are evaluated by neuronal profiling algorithm.
The extent of oligodendrocyte maturation is measured by the level of the PLP-EGFP reporter signal, along with the extent of process formation (FIGS. 1-4; legend for FIGS. 1 and 3 are presented below in Table 2). Proteolipid protein (PLP) is used as a biomarker because it is known to be expressed in mature oligodendrocytes and is a component of the myelin sheath. […] Compared to DMSO and all other compounds tested, including CNTF, the extent of process formation is also greatest for compound 21 (FIGS. 2 and 4).

[2] = system: genes in signaling pathways involved in proliferation and differentiation of OPCs; test: Expression profiling in tumor cell lines: overall statement; assay type: cell-based, human; settings: SKOV-3, A549 and Panc-1 cells, Table 1
Method: (§1) The study includes three human tumor cell lines: A549, Panc-1, and SK-OV-3. The lines are each grown in two flasks cultured to roughly 40% confluence. One of the flasks is treated by addition of compound to the culture media at a various concentrations, i.e. 10 μM, 20 μM 50 μM, 100 μM or 200 μM. The other, mock treated, flask is treated only with the vehicle used to solubilize and deliver the drug. RNA extracted from the pairs of treated and untreated samples is subjected to microarray analysis on Agilent Whole Human Genome Microarrays (G4112F). Each analysis reports the difference in abundance of messenger RNAs for each of the 41,000 specific mRNA detectors on the array. This direct comparison of the treated versus untreated samples for each cell line provides extremely sensitive detection of changes in mRNA abundance resulting from the drug treatment. As each cell line comparison is self-normalized, the results can be compared across the samples with high confidence.
Three human tumor cell lines, A549, Panc-1, and SK-OV-3, are each grown in two flasks cultured to roughly 40% confluence. […]
(§2) After the ratios have been calculated for the normalized data, the various control and duplicate samples are analyzed to build a model of how reproducible the results are, and how this reproducibility is varies depending on signal strength and noise. […]

[3] = system: Delta/notch-like EFG repeat (DNER); test: Expression profiling (Agilent microarray) in tumor cell lines: DNER; assay type: cell-based, human; settings: 24 hours, treated vs untreated, average of SKOV-3, A549 and Panc-1
Method: as §1
(§3) Three human tumor cell lines, A549, Panc-1, and SK-OV-3, are each grown in two flasks cultured to roughly 40% confluence. One of the flasks is treated by addition of compound to the culture media at concentrations of 10 μM, 50 μM and 100 μM. The other, mock treated, flask is treated only with the vehicle used to solubilize and deliver the drug. All flasks are cultured for a further 24 hours, and then the cells are scraped free and washed in ice-cold PBS, then collected by centrifugation. The harvested cells are immediately frozen, and stored at −80° C. or colder.
(§4) Total RNA is prepared from the frozen tissue samples using Trizol-based cell lysis followed by 65° C. hot phenol extraction and RNeasy chromatography purification. The purified RNA samples are analyzed spectrophotometrically. The concentration of RNA is determined by measuring the absorbance at 260 nm (A260). Given an absorbance of 1 unit at 260 nm corresponds to […].
(§5) All RNAs are labeled using 1 microgram of RNA as input to an Agilent Low Input Labeling reaction.
(§6) Test RNA is labeled with Cy5 (650 nm emitter) and reference RNA is labeled with Cy3 (550 nm emitter) nucleotides. Labeling, hybridizations and subsequent washings are carried out on Agilent H1Av2 human expression chips. The resulting hybridized chips are scanned on an Agilent microarray scanner, and intensity information for each detector spot is extracted from the scanned image using Agilent feature extraction software. […]
as §2

[4] = system: Myelin oligodentrocyte glycoprotein (variant alpha 4) (MOG); test: Expression profiling (Agilent microarray) in tumor cell lines: MOG; assay type: cell-based, human; settings: 24 hours, treated vs untreated, average of SKOV-3, A549 and Panc-1
Method: as §1, §3, §4, §5, §6, §2

[5] = system: Interleukin 28A (IL28A); test: Expression profiling (Agilent microarray) in tumor cell lines: IL28A; assay type: cell-based, human; settings: 24 hours, treated vs untreated, average of SKOV-3, A549 and Panc-1
Method: as §1, §3, §4, §5, §6, §2

[6] = system: Connexin (AF251047); test: Expression profiling (Agilent microarray) in tumor cell lines: Connexin; assay type: cell-based, human; settings: 24 hours, treated vs untreated, average of SKOV-3, A549 and Panc-1
Method: as §1, §3, §4, §5, §6, §2

[7] = system: Interleukin 20 receptor alpha (IL20RA); test: Expression profiling (Agilent microarray) in tumor cell lines: IL20RA; assay type: cell-based, human; settings: 24 hours, treated vs untreated, average of SKOV-3, A549 and Panc-1
Method: as §1, §3, §4, §5, §6, §2

[8] = system: Oligodentrocyte lineage transcription factor 2 (OLIG2); test: Expression profiling (Agilent microarray) in tumor cell lines: OLIG2; assay type: cell-based, human; settings: 24 hours, treated vs untreated, average of SKOV-3, A549 and Panc-1
Method: as §1, §3, §4, §5, §6, §2

[9] = system: Interleukin 23 receptor (IL23R); test: Expression profiling (Agilent microarray) in tumor cell lines: IL23R; assay type: cell-based, human; settings: 24 hours, treated vs untreated, average of SKOV-3, A549 and Panc-1
Method: as §1, §3, §4, §5, §6, §2

[10] = system: Myelin basic protein (variant 7) (MBP); test: Expression profiling (Agilent microarray) in tumor cell lines: MBP; assay type: cell-based, human; settings: 24 hours, treated vs untreated, average of SKOV-3, A549 and Panc-1
Method: as §1, §3, §4, §5, §6, §2

[11] = system: Transmembrane protein 108 (TMEM108); test: Expression profiling (Agilent microarray) in tumor cell lines: TMEM108; assay type: cell-based, human; settings: 24 hours, treated vs untreated, average of SKOV-3, A549 and Panc-1
Method: as §1, §3, §4, §5, §6, §2

COC[C@@H]1C[C@@H]2[C@H](CC[C@]3(C)C(O)CC[C@@H]23)c2ccc(O)cc21 (stereo partly drawn) [compound 4, (6R,8R,9S,13S,14S)-6-(methoxymethyl)-13-methyl-7,8,9,11,12,13,14,15,16,17-decahydro-6H-cyclopenta[a]phenanthrene-3,17-diol]
Potency in OPC differentiation (in words) ([1]; 10 μM): potent
Effect on genes in signaling pathways involved in proliferation and differentiation of OPCs [2]: up-regulate
Gene expression DNER ([3]; 50 μM): 5.16 log2
Gene expression DNER ([3]; 100 μM): 5.51 log2
Gene expression MOG ([4]; 50 μM): 3.99 log2
Gene expression MOG ([4]; 100 μM): 4.28 log2
Gene expression IL28A ([5]; 50 μM): 1.35 log2
Gene expression IL28A ([5]; 100 μM): 1.96 log2
Gene expression Connexin AF251047 ([6]; 50 μM): 3.38 log2
Gene expression Connexin AF251047 ([6]; 100 μM): 3.56 log2
Gene expression IL20RA ([7]; 50 μM): 3.17 log2
Gene expression IL20RA ([7]; 100 μM): 3.38 log2
Gene expression OLIG2 ([8]; 50 μM): 4.98 log2
Gene expression OLIG2 ([8]; 100 μM): 4.59 log2
Gene expression IL23R ([9]; 50 μM): 3.62 log2
Gene expression IL23R ([9]; 100 μM): 4.86 log2
Gene expression MBP ([10]; 50 μM): 4.72 log2
Gene expression MBP ([10]; 100 μM): 4.80 log2
Gene expression TMEM108 ([11]; 50 μM): 3.59 log2
Gene expression TMEM108 ([11]; 100 μM): 3.62 log2

COCCCCCC[C@@H]1C[C@@H]2[C@H](CC[C@]3(C)C(O)CC[C@@H]23)c2ccc(O)cc21 (stereo partly drawn) [compound 21, (6R,8R,9S,13S,14S)-6-(6-methoxyhexyl)-13-methyl-7,8,9,11,12,13,14,15,16,17-decahydro-6H-cyclopenta[a]phenanthrene-3,17-diol]
Activity to differentiate oligodendrocytes compared to DMSO ([1]; 10 μM, 4 days (96 hours), mouse OPC culture, PLP-EGFP signal): 3 fold
Activity to differentiate oligodendrocytes compared to positive control CNTF ([1]; 10 μM, 4 days (96 hours), mouse OPC culture, CNTF 10 μM): 1.5 fold
Activity to differentiate oligodendrocytes compared to positive control MEKi ([1]; 10 μM, 4 days (96 hours), mouse OPC culture, MEKi 1 μM): 2.0 fold
Potency in OPC differentiation (in words) ([1]; 10 μM): potent
Extent of process formation ([1]; compared to DMSO and all other compounds tested, including CNTF, FIGS. 2 and 4): greatest
Effect on genes in signaling pathways involved in proliferation and differentiation of OPCs [2]: up-regulate
Gene expression DNER ([3]; 10 μM): 6.20 log2
Gene expression DNER ([3]; 50 μM): 4.79 log2
Gene expression MOG ([4]; 10 μM): 5.23 log2
Gene expression MOG ([4]; 50 μM): 5.55 log2
Gene expression IL28A ([5]; 10 μM): 1.44 log2
Gene expression IL28A ([5]; 50 μM): 2.59 log2
Gene expression Connexin AF251047 ([6]; 10 μM): 2.74 log2
Gene expression Connexin AF251047 ([6]; 50 μM): 3.08 log2
Gene expression IL20RA ([7]; 10 μM): 4.42 log2
Gene expression IL20RA ([7]; 50 μM): 4.39 log2
Gene expression OLIG2 ([8]; 10 μM): 6.16 log2
Gene expression OLIG2 ([8]; 50 μM): 5.32 log2
Gene expression IL23R ([9]; 10 μM): 5.31 log2
Gene expression IL23R ([9]; 50 μM): 5.46 log2
Gene expression MBP ([10]; 10 μM): 6.07 log2
Gene expression MBP ([10]; 50 μM): 5.04 log2
Gene expression TMEM108 ([11]; 10 μM): 3.92 log2
Gene expression TMEM108 ([11]; 50 μM): 3.96 log2
